From US11274332B2, “Methods of administering 3,4-diaminopyridine” (SERB SA, priority 2011, dated 2022) come the findings set out here.

Structures are written as SMILES.

The experiment addresses T1, cloned human Kv1.4 potassium channel (Homo sapiens, UniProt P22459).
T1 construct: expressed in transfected cells
The experiment can be described thus: PatchXpress inhibition of cloned human Kv1.4 in HEK293 cells (Example 6). It counts as cell-based. The note with it: hKv1.4, up to 3000 μM. The source says:
The objective of this study was to examine the in vitro effects and determine the […] of 3,4-DAP phosphate and the metabolite N-(4-aminopyridin-3-yl) acetamide HCl on the following ion channels: cloned human Kv1.1 potassium channel (encoded by the human KCNA1 gene, expressed in HEK293 cells), cloned human Kv1.2 potassium channel (encoded by the human KCNA2 gene, expressed in HEK293 cells), cloned human Kv1.3 potassium channel (encoded by the human KCNA3 gene, expressed in CHO cells), cloned human Kv1.4 potassium channel (encoded by the human KCNA4 gene, expressed in HEK293 cells), cloned human Kv1.5 potassium channel (encoded by the human KCNA5 gene and expressed in CHO cells), responsible for IKur, ultra-rapid delayed rectifier potassium current.
Chemicals used in solution preparation were purchased from Sigma-Aldrich (St. Louis, Mo.), unless otherwise noted, and were of ACS reagent grade purity or higher. Stock solutions of each test article (100 mM, 30 mM and 1.00 mM 3,4-DAP phosphate and 100 mM N-(4-aminopyridin-3-yl)acetamide) were prepared in sterile water and stored refrigerated. […]
In preparation for a recording session, intracellular solution was loaded into the intracellular compartments of the Sealchip16. […] After establishment of a whole-cell configuration, membrane currents were recorded using dual-channel patch clamp amplifiers in the PatchXpress®. […]

T1 sequence (P22459 whole entry): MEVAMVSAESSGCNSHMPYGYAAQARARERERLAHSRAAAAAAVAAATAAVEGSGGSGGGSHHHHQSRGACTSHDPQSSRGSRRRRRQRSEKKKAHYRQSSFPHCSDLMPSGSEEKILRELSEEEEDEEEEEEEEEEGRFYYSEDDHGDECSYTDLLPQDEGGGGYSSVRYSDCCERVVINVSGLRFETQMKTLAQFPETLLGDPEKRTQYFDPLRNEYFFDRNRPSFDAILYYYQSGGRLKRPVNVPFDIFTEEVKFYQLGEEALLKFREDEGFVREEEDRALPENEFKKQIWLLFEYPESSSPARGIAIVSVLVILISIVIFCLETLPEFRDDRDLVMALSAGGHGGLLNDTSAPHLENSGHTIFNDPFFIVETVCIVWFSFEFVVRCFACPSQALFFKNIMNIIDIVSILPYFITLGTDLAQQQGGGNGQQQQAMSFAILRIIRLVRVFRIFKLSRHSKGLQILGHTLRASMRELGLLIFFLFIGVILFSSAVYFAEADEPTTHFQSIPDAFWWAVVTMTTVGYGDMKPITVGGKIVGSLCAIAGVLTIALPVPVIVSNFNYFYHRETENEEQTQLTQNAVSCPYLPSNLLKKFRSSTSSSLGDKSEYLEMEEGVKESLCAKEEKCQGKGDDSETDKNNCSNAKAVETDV

As for `CC(=O)Nc1cnccc1N` [3-N-acetyl amifampridine, N-(4-aminopyridin-3-yl)acetamide], the “activity on K+ channel” value is “inactive”. Moreover, the “activity on K+ channel” value (listed as N-acetyl metabolite) is listed as “not active”.
